Laboratory results published in US8476255B2, “Histone deacetylase inhibitors” (Orchid Chemicals & Pharmaceuticals Limited, priority 2007, dated 2013).

How the values were obtained:
[1] = tested on: HDAC (Mouse Liver Extract); experiment: HDAC inhibition assay using Boc-Lys(Ac)-AMC substrate; assay type: biochemical; settings: mouse liver enzyme
Method: Inhibition of HDAC has been implicated to modulate transcription and to induce apoptosis or differentiation in cancer cells. The fluorometric assay provides a fast and fluorescence based method that eliminates radioactivity, extractions or chromatography, as used in traditional assays. The assay is based on two steps. First, the HDAC fluorometric substrate, which comprises an acetylated lysine side chain, is incubated with a sample containing HDAC activity (Mouse Liver Extract). Deacetylation of the substrate sensitizes the substrate, in the second step; treatment with the Trypsin stop solution produces a fluorophore that can be easily analyzed using fluorescence plate reader. Assay was done in 96-well black microplate and total volume of the assay was […]. […] The plate was pre-incubated at 37° C. for 5 minutes. […] The plate was incubated at 37° C. for 30 min. The reaction was stopped by adding 100 μL, of Trypsin stop solution and incubating at 37° C. for 15-30 min. Measuring the fluorescence at excitation wavelength of 360 nm and emission wavelength of 460 nm monitored the release of AMC. Buffer alone and substrate alone served as blank. […] (Dennis Wegener et al, Anal. Biochem, 321, 2003, 202-208).

[2] = tested on: NCIH460, HCT116 and U251 cells; experiment: Anti-cancer screen, mean GI50 over cell lines; assay type: cell-based; settings: mean over cell lines; read-out: Cell growth inhibition Mean GI50
Method: (§1) Experimental drugs were screened for anti-cancer activity in three cell lines using five concentrations for each compound. The cell lines —HCT 116 (colon), NCIH460 (lung) and U251 (glioma) were maintained in DMEM containing 10% fetal bovine serum. 96-well microtiter plates are inoculated with cells in 100 μL of cell suspension (5×10^4 cells/mL) for 24 hours at 37° C., 5% CO2, 95% air and 100% relative humidity. A separate plate with these cell lines is also inoculated to determine cell viability before the addition of the compounds (T0).
(§2) Following 24-hours incubation, test compounds were added to the 96 well plates. Each plate contains one of the above cell lines and the following samples in triplicate: five different dilutions (0.01, 0.1, 1, 10 and 100 μM) of four test compounds, appropriate dilutions of a cytotoxic standard and growth medium (untreated) wells. Test compounds were dissolved in DMSO to prepare 20 mM stock solutions on the day of drug addition and serial dilutions were carried out in complete growth medium at 2× strength such that 100 μL added to wells gave final concentrations (0.01, 0.1, 1, 10 and 100 μM) in the well. SAHA was used as standard drug in these experiments.
(§3) For T0 measurement, 24 hours after seeding the cells, 20 μL of 3-(4,5-dimethyl-2-thiazolyl)-2,5-diphenyl-2H-tetrazolium (MTT) solution per well was added to the ‘T0’ plate and incubated for 3 hours at 37° C. in a CO2 incubator. The plate containing cells and test compounds was treated similarly after 48 hours of incubation. After 3 hours of MTT addition, well contents were aspirated carefully followed by addition of 150 μL DMSO per well. Plates were agitated to ensure dissolution of the formazan crystals in DMSO and absorbance was read at 570 nm (A570).
(§4) (Mosmann T. Rapid colorimetric assay for cellular growth and survival: application to proliferation and cytotoxicity assays. J Immunol Methods 1983; 65(1-2): 55-63; Anne Monks et al. Feasibility of high-flux anticancer drug screen using a diverse panel of cultured human tumor cell lines”. JNCI, Vol. 83, No. 11, 1991).

HCT 116 (colon) cells = experiment: Anti-cancer screen (MTT), HCT 116; assay type: cell-based; settings: Homo sapiens, HCT-116, HCT116, 48 hours, MTT; for GI50: read-out: Cell growth inhibition HCT116 (Colon) GI50; for CC50: read-out: Cell growth inhibition HCT116 (Colon) LC50; for IC (TGI): read-out: Cell growth inhibition HCT116 (Colon) TGI
Method: as §1, §2, §3, §4

U251 (glioma) cells = experiment: Anti-cancer screen (MTT), U251; assay type: cell-based; settings: Homo sapiens, U-251, U251, 48 hours, MTT; for GI50: read-out: Cell growth inhibition U251 (Glioma) GI50; for LC50 (concentration giving 50% net cell kill relative to the time-zero cell count): read-out: Cell growth inhibition U251 (Glioma) LC50; for IC (TGI): read-out: Cell growth inhibition U251 (Glioma) TGI
Method: as §1, §2, §3, §4

NCIH460 (lung) cells = experiment: Anti-cancer screen (MTT), NCIH460; assay type: cell-based; settings: Homo sapiens, NCI-H460, NCIH460, 48 hours, MTT; for GI50: read-out: Cell growth inhibition NCIH460 (Lung) GI50; for LC50: read-out: Cell growth inhibition NCIH460 (Lung) LC50; for IC (TGI): read-out: Cell growth inhibition NCIH460 (Lung) TGI
Method: as §1, §2, §3, §4

| SMILES | HDAC inhibition % (1 μM) [1] | HDAC inhibition % (10 μM) [1] | GI50 [2] | GI50 (HCT 116 (colon) cells) | CC50 (HCT 116 (colon) cells) | IC (TGI) (HCT 116 (colon) cells) | GI50 (U251 (glioma) cells) | LC50 (concentration giving 50% net cell kill relative to the time-zero cell count) (U251 (glioma) cells) | IC (TGI) (U251 (glioma) cells) | GI50 (NCIH460 (lung) cells) | LC50 (NCIH460 (lung) cells) | IC (TGI) (NCIH460 (lung) cells) | IC50 [1] |
| --- | --- | --- | --- | --- | --- | --- | --- | --- | --- | --- | --- | --- | --- |
| Nc1ccccc1NC(=O)c1ccc(CNC(=O)/C(=C/c2ccc(F)c(F)c2)c2ccc(F)cc2)cc1 [Compound 1, N-(2-Aminophenyl)-4-((3-(3,4-difluorophenyl)-2-(4-fluorophenyl)acrylamido)methyl)benzamide] | 1.2% | 27.8% | 2.4 µM | 2.2 µM | 27 µM | 4.9 µM | 2.8 µM | 35 µM | 4.2 µM | 2.3 µM | 52 µM | 5.4 µM | – |
| COc1ccc(/C=C(/C(=O)NCc2ccc(C(=O)Nc3ccccc3N)cc2)c2ccccc2)cc1 [Compound 2, N-(2-Aminophenyl)-4-((3-(4-methoxyphenyl)-2-(phenyl)acrylamido)methyl)benzamide] | 2.3% | 6.8% | 5 µM | 4.4 µM | > 100 µM | 9.4 µM | 7.6 µM | > 100 µM | 39 µM | 2.9 µM | > 100 µM | 8.2 µM | – |
| Nc1ccccc1NC(=O)c1ccc(CNC(=O)/C(=C/c2ccccc2F)c2ccc(Cl)cc2)cc1 [Compound 3, N-(2-Aminophenyl)-4-((3-(2-fluorophenyl)-2-(4-chlorophenyl)acrylamido)methyl)benzamide] | 5.1% | 16.4% | 6.6 µM | 3.2 µM | 100 µM | 10 µM | 16 µM | 85 µM | 39 µM | 0.6 µM | > 100 µM | 52 µM | – |
| Nc1ccccc1NC(=O)c1ccc(CNC(=O)/C(=C/c2ccc(F)c(C(F)(F)F)c2)c2ccc(C(F)(F)F)cc2)cc1 [Compound 4, N-(2-Aminophenyl)-4-((3-(4-fluoro-3-trifluoromethylphenyl)-2-(4-trifluoromethylphenyl)acrylamido)methyl)benzamide] | 0.0% | 14.2% | 5.3 µM | 4.1 µM | 77 µM | 26 µM | 11.5 µM | > 100 µM | 41 µM | 0.2 µM | 58.5 µM | 3.8 µM | – |
| CSc1ccc(/C=C(/C(=O)NCc2ccc(C(=O)Nc3ccccc3N)cc2)c2ccc(F)cc2)cc1 [Compound 6, N-(2-Aminophenyl)-4-((3-(4-methylthiophenyl)-2-(4-fluorophenyl)acrylamido)methyl)benzamide] | 4.2% | 25.8% | 4.5 µM | 4.8 µM | 95.8 µM | 46 µM | < 0.01 µM | 83.2 µM | 22 µM | 8.8 µM | 90 µM | 47 µM | – |
| Nc1ccccc1NC(=O)c1ccc(CNC(=O)/C(=C/c2ccc([N+](=O)[O-])s2)c2ccc(F)cc2)cc1 [Compound 7, N-(2-Aminophenyl)-4-((3-(5-nitrothiophen-2-yl)-2-(4-fluorophenyl)acrylamido)methyl)benzamide] | 12.4% | 19.4% | 9.2 µM | 4.5 µM | 71.2 µM | 9.6 µM | 17 µM | 76 µM | 34.5 µM | 6.2 µM | 73.8 µM | 26.5 µM | – |
| COc1cc(/C=C(/C(=O)NCc2ccc(C(=O)Nc3ccccc3N)cc2)c2ccc(F)cc2)cc(OC)c1OC [Compound 8, N-(2-Aminophenyl)-4-((3-(3,4,5-trimethoxyphenyl)-2-(4-fluorophenyl)acrylamido)methyl)benzamide] | 21.4% | 26.4% | 60.2 µM | 24.5 µM | > 100 µM | 82.5 µM | 67 µM | > 100 µM | 84.5 µM | 89 µM | > 100 µM | > 100 µM | – |
| Nc1ccccc1NC(=O)c1ccc(CNC(=O)/C(=C/c2ccc(F)cc2Cl)c2ccccc2)cc1 [Compound 9, N-(2-Aminophenyl)-4-((3-(2-chloro-4-fluorophenyl)-2-(phenyl)acrylamido)methyl)benzamide] | 12.1% | 32.1% | 69.3 µM | 58 µM | > 100 µM | 94 µM | 60 µM | > 100 µM | 79 µM | 90 µM | > 100 µM | > 100 µM | – |
| Nc1ccccc1NC(=O)c1ccc(CNC(=O)/C(=C/c2ccc(F)cc2)c2ccccc2)cc1 [Compound 10, N-(2-Aminophenyl)-4-((3-(4-fluorophenyl)-2-(phenyl)acrylamido)methyl)benzamide] | 14.5% | 32.1% | 16.8 µM | 3.9 µM | 56 µM | 9 µM | 27 µM | 92 µM | 57 µM | 19.5 µM | 85 µM | 49 µM | – |
| COc1ccc(/C=C(/C(=O)NCc2ccc(C(=O)Nc3ccccc3N)cc2)c2ccc(F)cc2)cc1 [Compound 11, N-(2-Aminophenyl)-4-((3-(4-methoxyphenyl)-2-(4-fluorophenyl)acrylamido)methyl)benzamide] | 9.7% | 24.6% | 13 µM | 5 µM | 68.5 µM | 12.5 µM | 26.1 µM | 86 µM | 53 µM | 8 µM | 83 µM | 41.2 µM | – |
| CSc1ccc(/C=C(/C(=O)NCc2ccc(/C=C/C(=O)NO)cc2)c2ccc(F)cc2)cc1 [Compound 76, (1E)-N-(4-(3-(Hydroxyamino)-3-oxoprop-1-enyl)benzyl)-2-(4-fluorophenyl)-3-(4-methylthiophenyl)acrylamide] | 42.6% | 89.8% | 4.6 µM | 5 µM | > 100 µM | 60 µM | – | – | – | 4.2 µM | > 100 µM | 42.5 µM | 0.06 µM |
